Measured values as given in patent US20240316022A1 (TYRA BIOSCIENCES, INC., priority 2021, published 2024).

Experiments:
Experiment in all cases: Kinase binding assay (kinase-tagged T7 phage, qPCR), Kd
FGFR1 = target: T1, FGFR1 (Homo sapiens, UniProt P11362); conditions: read-out: FGFR1 (Kd nM)
T1 construct: made in house; host or cells: E. coli derived from BL21, infected with T7 phage
Procedure: (§1) Kinase-tagged T7 phage strains were prepared in an E. coli host derived from the BL21 strain. E. coli were grown to log-phase and infected with T7 phage and incubated with shaking at 32° C. until lysis. The lysates were centrifuged and filtered to remove cell debris. […] The liganded beads were blocked with excess biotin and washed with blocking buffer SeaBlock (Pierce), 1% BSA, 0.05% Tween 20, 1 mM DTT to remove unbound ligand and to reduce non-specific binding.
(§2) Kds were determined using an 11-point 3-fold compound dilution series with three DMSO control points. […] The compounds were then diluted directly into the assays such that the final concentration of DMSO was 0.9%. All reactions performed in polypropylene 384-well plate. Each was a final volume of 0.02 ml. […] The kinase concentration in the eluates was measured by qPCR.
(§3) Binding constants were calculated with a standard dose-response curve using the Hill equation: […]
(§4) The Hill Slope was set to −1. Curves were fitted using a non-linear least square fit with the Levenberg-Marquardt algorithm.

FGFR2 = target: T2, FGFR2 (Homo sapiens, UniProt P21802); conditions: read-out: FGFR2 (Kd nM)
T2 construct: made in house; host or cells: E. coli derived from BL21, infected with T7 phage
T2 sequence (P21802 22-821): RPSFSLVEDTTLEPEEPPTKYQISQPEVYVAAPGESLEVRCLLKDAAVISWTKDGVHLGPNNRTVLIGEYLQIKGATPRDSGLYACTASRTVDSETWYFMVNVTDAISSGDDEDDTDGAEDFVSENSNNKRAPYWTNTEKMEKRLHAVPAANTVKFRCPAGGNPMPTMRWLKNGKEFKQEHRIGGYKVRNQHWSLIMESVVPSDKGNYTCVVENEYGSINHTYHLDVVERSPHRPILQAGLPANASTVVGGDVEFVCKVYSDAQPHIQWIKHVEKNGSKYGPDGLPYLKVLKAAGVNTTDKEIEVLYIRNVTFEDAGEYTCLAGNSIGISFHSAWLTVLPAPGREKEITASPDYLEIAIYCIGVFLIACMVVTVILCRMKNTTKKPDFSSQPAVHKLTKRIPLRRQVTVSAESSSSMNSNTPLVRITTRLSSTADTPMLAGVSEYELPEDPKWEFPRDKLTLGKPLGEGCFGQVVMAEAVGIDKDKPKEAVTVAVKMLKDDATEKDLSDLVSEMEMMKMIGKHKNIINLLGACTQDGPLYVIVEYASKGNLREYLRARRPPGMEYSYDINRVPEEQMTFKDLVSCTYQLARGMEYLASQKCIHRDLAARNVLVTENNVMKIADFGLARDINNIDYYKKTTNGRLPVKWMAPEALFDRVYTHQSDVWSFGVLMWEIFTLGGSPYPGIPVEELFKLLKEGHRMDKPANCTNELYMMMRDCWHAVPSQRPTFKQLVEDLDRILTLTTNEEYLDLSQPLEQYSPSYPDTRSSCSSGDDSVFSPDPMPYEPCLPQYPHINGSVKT
Procedure: as §1, §2, §3, §4

FGFR3 = target: T3, FGFR3 (Homo sapiens, UniProt P22607); conditions: read-out: FGFR3 (Kd nM)
T3 construct: made in house; host or cells: E. coli derived from BL21, infected with T7 phage
T3 sequence (P22607 23-806): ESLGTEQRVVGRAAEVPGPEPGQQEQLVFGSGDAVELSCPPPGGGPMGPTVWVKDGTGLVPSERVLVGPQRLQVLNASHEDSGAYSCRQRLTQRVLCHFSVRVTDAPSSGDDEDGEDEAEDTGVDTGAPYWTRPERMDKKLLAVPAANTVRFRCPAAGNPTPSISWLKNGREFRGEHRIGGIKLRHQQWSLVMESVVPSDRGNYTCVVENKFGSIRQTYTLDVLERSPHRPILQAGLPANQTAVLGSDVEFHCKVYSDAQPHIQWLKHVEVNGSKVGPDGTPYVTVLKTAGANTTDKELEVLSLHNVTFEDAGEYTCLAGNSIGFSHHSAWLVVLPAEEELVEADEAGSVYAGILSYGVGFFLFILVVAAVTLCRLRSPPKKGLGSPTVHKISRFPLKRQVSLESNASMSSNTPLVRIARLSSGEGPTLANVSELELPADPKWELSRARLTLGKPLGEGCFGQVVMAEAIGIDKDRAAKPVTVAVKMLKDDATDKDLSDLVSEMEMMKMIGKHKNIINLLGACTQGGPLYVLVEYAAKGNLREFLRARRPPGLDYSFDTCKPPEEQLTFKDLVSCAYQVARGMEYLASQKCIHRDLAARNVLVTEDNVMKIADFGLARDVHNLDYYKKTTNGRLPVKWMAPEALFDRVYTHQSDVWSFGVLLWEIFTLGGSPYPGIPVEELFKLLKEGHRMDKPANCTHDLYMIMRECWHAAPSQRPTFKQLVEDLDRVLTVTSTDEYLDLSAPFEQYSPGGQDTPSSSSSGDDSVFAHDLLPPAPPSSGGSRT
Procedure: (§5) Kinase-tagged T7 phage strains were prepared in an E. coli host derived from the BL21 strain. E. coli were grown to log-phase and infected with T7 phage and incubated with shaking at 32° C. until lysis. The lysates were centrifuged and filtered to remove cell debris. Streptavidin-coated magnetic beads were treated with biotinylated small molecule ligands for 30 minutes at room temperature to generate affinity resins for kinase assays. The liganded beads were blocked with excess biotin and washed with blocking buffer SeaBlock (Pierce), 1% BSA, 0.05% Tween 20, 1 mM DTT to remove unbound ligand and to reduce non-specific binding. Binding reactions were assembled by combining kinases, liganded affinity beads, and test compounds in 1× binding buffer (20% SeaBlock, 0.17×PBS, 0.05% Tween 20, 6 mM DTT).
(§6) Test compounds were prepared as 111X stocks in 100% DMSO. Kds were determined using an 11-point 3-fold compound dilution series with three DMSO control points. All compounds for Kd measurements are distributed by acoustic transfer (non-contact dispensing) in 100% DMSO. The compounds were then diluted directly into the assays such that the final concentration of DMSO was 0.9%. All reactions performed in polypropylene 384-well plate. Each was a final volume of 0.02 ml. The assay plates were incubated at room temperature with shaking for 1 hour and the affinity beads were washed with wash buffer (1×PBS, 0.05% Tween 20). The beads were then re-suspended in elution buffer (1×PBS, 0.05% Tween 20, 0.5 μM non-biotinylated affinity ligand) and incubated at room temperature with shaking for 30 minutes. The kinase concentration in the eluates was measured by qPCR.
as §3, §4

FGFR4 = target: T4, FGFR4 (Homo sapiens, UniProt P22455); conditions: read-out: FGFR4 (Kd nM)
T4 construct: made in house; host or cells: E. coli derived from BL21, infected with T7 phage
T4 sequence (P22455 22-802): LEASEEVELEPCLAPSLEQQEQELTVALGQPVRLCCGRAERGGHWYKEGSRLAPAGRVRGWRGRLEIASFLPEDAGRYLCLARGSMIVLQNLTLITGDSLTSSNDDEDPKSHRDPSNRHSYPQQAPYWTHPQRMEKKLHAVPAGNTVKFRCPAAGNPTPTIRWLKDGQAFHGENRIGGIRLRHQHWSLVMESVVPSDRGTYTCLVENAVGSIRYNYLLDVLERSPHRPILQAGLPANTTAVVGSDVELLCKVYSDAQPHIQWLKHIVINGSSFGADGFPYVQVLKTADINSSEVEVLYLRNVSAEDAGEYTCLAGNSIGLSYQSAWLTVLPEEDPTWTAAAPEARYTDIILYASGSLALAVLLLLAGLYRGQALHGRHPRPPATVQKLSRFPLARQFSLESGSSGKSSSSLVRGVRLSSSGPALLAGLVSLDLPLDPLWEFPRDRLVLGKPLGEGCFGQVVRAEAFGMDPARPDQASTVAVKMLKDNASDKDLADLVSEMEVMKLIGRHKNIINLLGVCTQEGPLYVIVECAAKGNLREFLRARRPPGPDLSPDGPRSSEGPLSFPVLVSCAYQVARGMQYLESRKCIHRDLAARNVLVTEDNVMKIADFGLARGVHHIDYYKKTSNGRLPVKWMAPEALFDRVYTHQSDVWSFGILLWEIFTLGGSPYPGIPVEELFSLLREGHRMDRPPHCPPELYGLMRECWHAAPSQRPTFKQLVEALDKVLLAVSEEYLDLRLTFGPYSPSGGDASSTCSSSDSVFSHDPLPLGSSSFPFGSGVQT
Procedure: as §5, §6, §3, §4

T1 sequence (P11362 22-822): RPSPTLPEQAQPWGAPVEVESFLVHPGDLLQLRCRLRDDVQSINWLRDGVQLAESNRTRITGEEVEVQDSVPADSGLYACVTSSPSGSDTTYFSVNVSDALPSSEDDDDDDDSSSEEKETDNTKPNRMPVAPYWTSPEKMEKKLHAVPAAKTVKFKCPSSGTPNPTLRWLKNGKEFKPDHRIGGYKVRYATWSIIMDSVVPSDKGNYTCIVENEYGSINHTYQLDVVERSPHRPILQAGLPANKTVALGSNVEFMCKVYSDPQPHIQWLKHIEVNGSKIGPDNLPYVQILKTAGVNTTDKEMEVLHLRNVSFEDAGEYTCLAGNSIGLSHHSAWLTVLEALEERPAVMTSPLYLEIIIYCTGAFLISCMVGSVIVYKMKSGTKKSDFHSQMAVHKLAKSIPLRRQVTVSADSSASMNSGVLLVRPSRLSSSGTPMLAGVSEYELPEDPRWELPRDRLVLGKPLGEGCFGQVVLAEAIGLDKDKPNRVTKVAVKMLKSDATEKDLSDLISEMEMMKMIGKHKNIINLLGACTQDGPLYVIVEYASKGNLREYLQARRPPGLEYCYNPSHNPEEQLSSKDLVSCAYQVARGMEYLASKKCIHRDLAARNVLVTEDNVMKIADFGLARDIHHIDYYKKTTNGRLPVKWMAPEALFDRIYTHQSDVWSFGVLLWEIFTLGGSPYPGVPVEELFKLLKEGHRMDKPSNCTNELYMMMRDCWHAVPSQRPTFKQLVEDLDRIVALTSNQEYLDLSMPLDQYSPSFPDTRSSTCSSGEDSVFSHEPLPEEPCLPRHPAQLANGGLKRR

| Structure (SMILES) | Kd (FGFR1) [nM] | Kd (FGFR2) [nM] | Kd (FGFR3) [nM] | Kd (FGFR4) [nM] |
| --- | --- | --- | --- | --- |
| COc1cc(OC)cc(-c2n[nH]c3ccc(O[C@@H](C)c4c(C)cnnc4C)cc23)c1 [Example 58, 3-(3,5-dimethoxyphenyl)-5-[(1S)-1-(3,5-dimethylpyridazin-4-yl)ethoxy]-1H-indazole] | 0.1 to 100 | 0.1 to 100 | 0.1 to 100 | 0.1 to 100 |
| CCOc1cc(OC)cc(-c2n[nH]c3ccc(O[C@@H](C)c4c(C)cnnc4C)cc23)c1 [Example 59, 5-[(1S)-1-(3,5-dimethylpyridazin-4-yl)ethoxy]-3-(3-ethoxy-5-methoxy-phenyl)-1H-indazole] | > 1000 | > 1000 | > 1000 | > 1000 |
| COc1cc(OC(C)C)cc(-c2n[nH]c3ccc(O[C@H](C)c4c(C)cnnc4C)cc23)c1 [Example 60, 5-[(1R)-1-(3,5-dimethylpyridazin-4-yl)ethoxy]-3-(3-isopropoxy-5-methoxy-phenyl)-1H-indazole] | > 1000 | > 1000 | > 1000 | > 1000 |
| Cc1cnnc(C)c1[C@@H](C)Oc1ccc2[nH]nc(-c3cc(C#N)cc(OC(F)(F)F)c3)c2c1 [Example 61, 3-[5-[(1R)-1-(3,5-dimethylpyridazin-4-yl)ethoxy]-1H-indazol-3-yl]-5-(trifluoromethoxy)-benzonitrile] | > 1000 | > 1000 | > 1000 | 250 to 1000 |
| COc1cc(OC(F)(F)F)cc(-c2n[nH]c3ccc(O[C@H](C)c4c(C)cnnc4C)cc23)c1 [Example 63, 5-[(1R)-1-(3,5-dimethylpyridazin-4-yl)ethoxy]-3-[3-methoxy-5-(trifluoromethoxy)phenyl]-1H-indazole] | > 1000 | > 1000 | 250 to 1000 | 0.1 to 100 |
| Cc1cnnc(C)c1[C@H](C)Oc1ccc2[nH]nc(-c3cc(C#N)cc(N4CCN(C)CC4)c3)c2c1 [Example 66, 3-[5-[(1S)-1-(3,5-dimethylpyridazin-4-yl)ethoxy]-1H-indazol-3-yl]-5-(4-methylpiperazin-1-yl)benzonitrile] | > 1000 | > 1000 | > 1000 | 250 to 1000 |
| Cc1cnnc(C)c1[C@@H](C)Oc1ccc2[nH]nc(-c3cc(C#N)cc(OC4CCOC4)c3)c2c1 (stereo partly drawn) [Example 67, 3-[5-[(1R)-1-(3,5-dimethylpyridazin-4-yl)ethoxy]-1H-indazol-3-yl]-5-tetrahydrofuran-3-yloxy-benzonitrile] | 100 to 250 | 250 to 1000 | 100 to 250 | 0.1 to 100 |
| COc1cc(OCC2CC2)cc(-c2n[nH]c3ccc(O[C@H](C)c4c(C)cnnc4C)cc23)c1 [Example 68, 3-[3-(cyclopropyl-methoxy)-5-methoxy-phenyl]-5-[(1R)-1-(3,5-dimethylpyridazin-4-yl)ethoxy]-1H-indazole] | > 1000 | > 1000 | > 1000 | 0.1 to 100 |
| Cc1cc(-c2n[nH]c3ccc(O[C@@H](C)c4c(C)cnnc4C)cc23)cc(C#N)n1 [Example 70, 4-[5-[(1S)-1-(3,5-Dimethylpyridazin-4-yl)ethoxy]-1H-indazol-3-yl]-6-methyl-pyridine-2-carbonitrile] | > 1000 | > 1000 | > 1000 | > 1000 |
| Cc1cnnc(C)c1[C@@H](C)Oc1ccc2[nH]nc(-c3cc(C#N)cc(OC4CCOCC4)c3)c2c1 [Example 71, 3-[5-[(1R)-1-(3,5-dimethylpyridazin-4-yl)ethoxy]-1H-indazol-3-yl]-5-tetrahydropyran-4-yloxy-benzonitrile] | 250 to 1000 | > 1000 | 250 to 1000 | 0.1 to 100 |
| COc1ncc(-c2n[nH]c3ccc(O[C@H](C)c4c(Cl)cncc4Cl)cc23)cc1C#N [Example 74, 5-[5-[(1R)-1-(3,5-dichloro-4-pyridyl)ethoxy]-1H-indazol-3-yl]-2-methoxy-pyridine-3-carbonitrile] | 250 to 1000 | 250 to 1000 | 0.1 to 100 | 0.1 to 100 |
| COCCOc1cc(C#N)cc(-c2n[nH]c3ccc(O[C@H](C)c4c(C)cnnc4C)cc23)c1 [Example 75, 3-[5-[(1R)-1-(3,5-dimethylpyridazin-4-yl)ethoxy]-1H-indazol-3-yl]-5-(2-methoxyethoxy)-benzonitrile] | 100 to 250 | 100 to 250 | 0.1 to 100 | 0.1 to 100 |
| Cc1cnnc(C)c1[C@@H](C)Oc1ccc2[nH]nc(-c3cc(C#N)cc(OCC4CC4)c3)c2c1 [Example 78, 3-(cyclopropylmethoxy)-5-[5-[(1R)-1-(3,5-dimethylpyridazin-4-yl)ethoxy]-1H-indazol-3-yl]benzonitrile] | > 1000 | > 1000 | 250 to 1000 | 0.1 to 100 |

Results, then the molecule that gave them:

| Kd (FGFR1) [nM] | Kd (FGFR2) [nM] | Kd (FGFR3) [nM] | Kd (FGFR4) [nM] | Structure (SMILES) |
| --- | --- | --- | --- | --- |
| > 1000 | > 1000 | > 1000 | 100 to 250 | Cc1cnnc(C)c1[C@@H](C)Oc1ccc2[nH]nc(-c3cc(C#N)cc(N4CCN(C)CC4)c3)c2c1 [Example 62, 3-[5-[(1R)-1-(3,5-dimethylpyridazin-4-yl)ethoxy]-1H-indazol-3-yl]-5-(4-methylpiperazin-1-yl)benzonitrile] |
| > 1000 | > 1000 | > 1000 | 100 to 250 | Cc1cnnc(C)c1[C@@H](C)Oc1ccc2[nH]nc(-c3cc(C#N)cc(N4CCOCC4)c3)c2c1 [Example 64, 3-[5-[(1R)-1-(3,5-Dimethylpyridazin-4-yl)ethoxy]-1H-indazol-3-yl]-5-morpholino-benzonitrile] |
| > 1000 | > 1000 | > 1000 | > 1000 | Cc1cnnc(C)c1[C@H](C)Oc1ccc2[nH]nc(-c3cc(C#N)cc(N4CCOCC4)c3)c2c1 [Example 65, 3-[5-[(1S)-1-(3,5-Dimethylpyridazin-4-yl)ethoxy]-1H-indazol-3-yl]-5-morpholino-benzonitrile] |
| 100 to 250 | 0.1 to 100 | 0.1 to 100 | 0.1 to 100 | Cc1cc(-c2n[nH]c3ccc(O[C@H](C)c4c(C)cnnc4C)cc23)cc(C#N)n1 [Example 69, 4-[5-[(1R)-1-(3,5-Dimethylpyridazin-4-yl)ethoxy]-1H-indazol-3-yl]-6-methyl-pyridine-2-carbonitrile] |
| > 1000 | 250 to 1000 | 100 to 250 | 0.1 to 100 | CCOCCOc1cc(C#N)cc(-c2n[nH]c3ccc(O[C@H](C)c4c(C)cnnc4C)cc23)c1 [Example 73, 3-[5-[(1R)-1-(3,5-dimethylpyridazin-4-yl)ethoxy]-1H-indazol-3-yl]-5-(2-ethoxyethoxy)-benzonitrile] |
| 250 to 1000 | > 1000 | 100 to 250 | 0.1 to 100 | COc1cc(-c2n[nH]c3ccc(O[C@H](C)c4c(C)cnnc4C)cc23)cc(C#N)c1OC [Example 76, 5-[5-[(1R)-1-(3,5-dimethylpyridazin-4-yl)ethoxy]-1H-indazol-3-yl]-2,3-dimethoxy-benzonitrile] |
| 250 to 1000 | 100 to 250 | 0.1 to 100 | 0.1 to 100 | Cc1cc(-c2n[nH]c3ccc(O[C@H](C)c4c(C)cnnc4C)cc23)cc(C#N)c1F [Example 77, 5-[5-[(1R)-1-(3,5-dimethylpyridazin-4-yl)ethoxy]-1H-indazol-3-yl]-2-fluoro-3-methyl-benzonitrile] |
